Tests used:
[1] = molecular target: T1, human D1R (Homo sapiens, UniProt P21728); test: potentiator-mode cAMP assay (HTRF) in SK-N-MC neuroblastoma cells endogenously expressing human D1R; format: cell-based; conditions: no DA
T1 construct: endogenously expressed human D1R in the SK-N-MC cell line (ATCC); host or cells: SK-N-MC human neuroblastoma cells

[2] = molecular target: T1, human D1R; test: as above; format: cell-based; conditions: for Emax: SK-N-MC, read-out: % maximum increase (efficacy over DA EC70); for EC50: potency of the compound at the DA EC70 concentration
Method: An in-house chemical library of 250 compounds was screened using an in vitro assay measuring accumulation of cAMP in a human neuroblastoma SK-N-MC cell line stably expressing physiological levels of the D1R but not the D5R.[41] To assess allosteric modulation of the D1R, cells were treated with a fixed concentration of the test compounds (10 μM) for 15 min and then co-incubated with increasing concentrations of the endogenous agonist DA. The cAMP concentration was quantified by homogeneous time-resolved fluorescence energy transfer (HTRF) and the effect of each compound on the DA concentration–response curve was measured.
The PAM efficacy was measured as the percentage of increase over DA EC70 and the potency as the EC50 observed in the concentration–response curve.
Functional studies at human D1 and D2 receptors were carried out in endogenously expressed human D1R in the SK-N-MC cell line (ATCC), and recombinant human D2R stably transfected in an in-house CHO cell line. Cells were thawed and seeded into a black 96-well plate (1 × 10^4 cells/well for SK-N-MC cell line, 5 × 10^3 cells/well for CHO cell line) in Opti-MEM containing 500 μM IBMX (3-isobutyl-1-methylxanthine).

[3] = test system: reserpinized C57BL/6 mice; test: locomotor activity in reserpinized mice; format: in vivo, mouse; conditions: reserpine 2.5 mg/kg sc; 26 30 mg/kg po; L-DOPA 100 or 400 mg/kg ip
Method: The study was carried out in male C57BL/6 wild-type (22–25 g) mice that were acclimatized for 5 days. Animals were randomized based on body weight into six groups (G1 to G6), ten animals per group (n = 10), being group G1 the naïve control group. Animals were fed with standard diet ad libitum. Animals were dosed with subcutaneous administration of reserpine (2.5 mg/kg in DMSO/saline) and after 20 h they were treated with a vehicle (10 mL/kg, po), compound 26 (30 mg/kg, po), L-DOPA (100 or 400 mg/kg, ip) + carbidopa (100 mg/kg, ip) and/or their combination, as indicated in Figure 7. The vehicle employed for compound 26 administration was 5% NMP + 5% solutol HS-15 + 90% normal saline. L-DOPA and carbidopa were administered 30 min prior to start of locomotor activity recording. Compound 26 was administered and 15 min later, mice were placed in the locomotor activity cage to measure the locomotor activity for 60 min (total distance travelled) using ALL Maze version 0.5 automated software enabled with video tracking system. After the activity sessions, raw data were reduced using ALL Maze 5.0 software and Microsoft Excel. Statistical analysis was done with GraphPad Prism-5 using one way ANOVA followed by Dunnett’s test/Tukey’s post hoc test and/or two-way ANOVA followed by Bonferroni post hoc test. Data were considered statistically significant, if P value was less than 0.05.

[4] = concentration–response curve of the compound over DA EC70

T1 sequence (P21728 whole entry): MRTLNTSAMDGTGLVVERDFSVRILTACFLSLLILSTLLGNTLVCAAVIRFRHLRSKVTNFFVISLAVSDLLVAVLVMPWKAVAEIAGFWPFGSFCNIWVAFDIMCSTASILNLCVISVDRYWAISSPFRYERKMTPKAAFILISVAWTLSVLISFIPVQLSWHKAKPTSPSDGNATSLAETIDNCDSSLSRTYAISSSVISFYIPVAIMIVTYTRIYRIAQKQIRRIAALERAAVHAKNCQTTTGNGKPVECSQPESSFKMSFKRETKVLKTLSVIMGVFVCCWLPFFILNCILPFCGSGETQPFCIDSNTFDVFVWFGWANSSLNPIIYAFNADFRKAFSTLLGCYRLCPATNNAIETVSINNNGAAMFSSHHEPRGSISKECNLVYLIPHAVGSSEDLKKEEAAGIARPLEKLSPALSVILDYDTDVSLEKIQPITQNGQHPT

| SMILES | Emax [2, 4] [%] | EC50 [2] [µM] | further results |
| --- | --- | --- | --- |
| C[S@](=N)(=O)c1ccc(-c2ccccc2OCF)cc1 [(S)-26, (S)-2-(Fluoromethoxy)-4′-(S-methanesulfonimidoyl)-1,1′-biphenyl] |  |  | cAMP response in the absence of DA (agonist activity) [1]: no agonist activity |
| O=Cc1ccc(-c2ccc(OC(F)F)cc2)cc1 [Compound 5] | 37 ± 5 | 2.3 ± 0.4 |  |
| O=Cc1ccc(-c2cccc(OC(F)F)c2)cc1 [Compound 6] | 35 ± 7 | 10.8 ± 1.6 |  |
| O=Cc1ccc(-c2ccccc2OC(F)F)cc1 [Compound 7] | 62 | 18.5 ± 2.7 | % maximum increase (efficacy over DA EC70) [2, 4]: 62 ± 10% |
| O=Cc1ccc(-c2ccccc2SC(F)F)cc1 [Compound 10, 2′-[(Difluoromethyl)sulfanyl][1,1′-biphenyl]-4-carbaldehyde] | 101 ± 10 | 21.8 ± 3.6 | melting point: 46 to 47 °C |
| NS(=O)(=O)c1ccc(-c2ccccc2OCF)cc1 [Compound 18] | 42 ± 7 | 4.93 ± 1.2 |  |
| CNS(=O)(=O)c1ccc(-c2ccccc2OCF)cc1 [Compound 19] | 28 ± 8 | 1.26 ± 0.7 |  |
| CS(=O)(=O)c1ccc(-c2ccccc2OCF)cc1 [Compound 20] | 30 ± 8 | 13.1 ± 2.8 |  |
| C[S+]([O-])c1ccc(-c2ccccc2OCF)cc1 (stereo not shown) [Compound 23] | 73 ± 6 | 21.7 ± 5.8 |  |
| CCS(=N)(=O)c1ccc(-c2ccccc2OCF)cc1 (stereo not shown) [Compound 25] | 50 ± 7 | 30.2 ± 2.4 |  |
| CN=S(C)(=O)c1ccc(-c2ccccc2OCF)cc1 (stereo not shown) [Compound 27] | 33 ± 3 | 15.9 ± 2.7 |  |
| C[S@@](=N)(=O)c1ccc(-c2ccccc2OCF)cc1 [Compound (R)-26, (R)-2-(Fluoromethoxy)-4′-(S-methanesulfonimidoyl)-1,1′-biphenyl] |  |  | cAMP response in the absence of DA (agonist activity) [1]: no agonist activity |
| N[C@@H](Cc1ccc(O)c(O)c1)C(=O)O [L-DOPA, reference compound] |  |  | recovery of decreased locomotor activity, substance alone [3]: small recovery of decreased locomotor activity |

— article PMC9511493, “2-(Fluoromethoxy)-4′-(S-methanesulfonimidoyl)-1,1′-biphenyl (UCM-1306), an Orally Bioavailable Positive Allosteric Modulator of the Human Dopamine D1 Receptor for Parkinson’s Disease” (Journal of Medicinal Chemistry, 2022)
